Where two headings read alike, the source gives them in different places.
Tests used:
human GPR120 = target: T1, human GPR120 (Homo sapiens, UniProt Q5NUL3); experiment: Ca2+ influx assay in CHO cells stably expressing human GPR120; type: cell-based; conditions: CHO cells expressing human GPR120, Ca2+ signal, mean of three determinations
T1 construct: expressed in transfected cells
T1 sequence (Q5NUL3 1-361): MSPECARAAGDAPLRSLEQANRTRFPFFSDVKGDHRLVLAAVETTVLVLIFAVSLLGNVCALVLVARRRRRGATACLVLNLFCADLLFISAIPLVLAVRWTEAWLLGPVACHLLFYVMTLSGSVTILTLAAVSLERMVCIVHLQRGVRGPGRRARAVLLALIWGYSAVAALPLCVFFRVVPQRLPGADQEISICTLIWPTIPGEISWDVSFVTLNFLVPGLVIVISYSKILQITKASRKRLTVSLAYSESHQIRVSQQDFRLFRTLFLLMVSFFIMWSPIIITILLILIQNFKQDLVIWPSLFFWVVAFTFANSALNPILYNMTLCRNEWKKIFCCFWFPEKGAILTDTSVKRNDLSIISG
Experimental: Chinese hamster ovary (CHO) cells stably expressing human GPR120 were suspended in growth media at a concentration of 1 × 10^6 per mL. […] The cell plate was removed from the incubator, the medium was gently discarded, and the wells were washed with 100 μL of Hank’s balanced salt solution (HBSS) per well. The cells were then incubated in HBSS containing fluorescent calcium indicator Fluo-4 AM (2.5 μg/mL) and probenecid (2.5 mmol/L) for 90 min. […] The test compounds at various concentrations were added to the cells, and intracellular Ca^2+ concentrations were measured using FlexStation3 Molecular Devices. The GPR120 agonistic activities of the test compounds were expressed as A/B (increase in the intracellular Ca^2+ concentration (A) in the test compound-treated cells and (B) in vehicle-treated cells). The EC50 value of each compound was calculated using Prism software (version 5.0; GraphPad Software, San Diego, CA, USA).

hGPR40 [1] = target: T2, hGPR40 (Homo sapiens, UniProt O14842); design: method as in PMID 22519963, PMID 29100735, PMID 28642104, PMID 28947942, PMID 28374589; conditions: cited from earlier work
T2 construct: expressed in transfected cells; host or cells: CHO cells
T2 sequence (O14842 whole entry): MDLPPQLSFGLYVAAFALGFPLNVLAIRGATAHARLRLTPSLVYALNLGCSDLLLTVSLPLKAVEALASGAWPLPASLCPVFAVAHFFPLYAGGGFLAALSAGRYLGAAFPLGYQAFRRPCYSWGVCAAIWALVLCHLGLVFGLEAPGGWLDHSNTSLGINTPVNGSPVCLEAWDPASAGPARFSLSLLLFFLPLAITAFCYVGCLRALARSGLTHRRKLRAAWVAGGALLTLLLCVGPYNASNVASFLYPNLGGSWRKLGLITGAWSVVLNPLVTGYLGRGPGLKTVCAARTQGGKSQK

hGPR120 = system: hGPR120; design: method as in PMID 22519963, PMID 29100735, PMID 28642104, PMID 28947942, PMID 28374589; conditions: Figure 1, literature values; cited from earlier work
hGPR40 [2] = target: T2, hGPR40; experiment: Calcium influx assay on hGPR40-expressing CHO cells; type: cell-based; conditions: for Selectivity: GPR40 EC50 over GPR120 EC50; for EC50: hGPR40-expressing CHO cells, calcium influx, mean of three determinations, read-out: GPR40 (EC50)
normal ICR mice = experiment: Oral glucose tolerance test in normal ICR mice; type: in vivo; conditions: fasted ICR mice
Experimental: Male ICR starved overnight (12 h) were weighed and randomly divided into six groups (eight mice per group). […] Blood samples were collected via the tail tip before drug administration (-30 min), before glucose loading (time 0), and 15, 30, 60, and 120 min after glucose loading. Blood glucose levels were measured using blood glucose test strips (Sannuo GA-3 type, Changsha, China).

[3] = Pharmacokinetic analysis in C57BL/6 mice after gavage administration; type: in vivo; conditions: male, mouse, plasma, po, 10 mg/kg gavage, 0.5% MC; for AUC / Cmax / half-life: mean ± SEM of four mice
Experimental: Plasma was collected with a pipette and the proteins in the plasma were precipitated with two volumes of acetonitrile containing an internal standard. This was followed by centrifugation at 15.680 g for 10 min after vortexing for 5 min. The supernatant was diluted with acetonitrile and 10 μL of supernatant was analyzed by Waters LC-PDA-MS/MS to determine plasma drug levels. Pharmacokinetic parameters were determined using the mean data from four mice at each time point. Statistical analysis of the data was performed using the DAS 2.1.1 statistical software program (BioVoice, Shanghai, China).

DIO mice = experiment: Anti-hyperglycemic effects (oGTT) in diet-induced obese (DIO) mice; type: in vivo, C57BL/6 mice; conditions: fasted DIO mice, 20 mg/kg gavage 30 min before oral glucose 2 g/kg
Excerpt: After 1 week of adaptation, male C57BL/6 mice weighing 18–22 g, were fed a high-fat diet (45% calories from fat, from Mediscience Ltd., Yangzhou, China) ad libitum for an additional 8 weeks to induce insulin resistance. […] Blood samples were collected and measured in accordance with the oral glucose tolerance test in normal ICR mice.

SMILES | EC50 (human GPR120) [nM] | melting point [°C] | further results
Cc1ccc(-c2ccc(F)cc2COc2ccc(CCC(=O)O)c(F)c2)cc1 [Compound 4f, 3-(2-Fluoro-4-((4-fluoro-4′-methyl-[1,1′-biphenyl]-2-yl)methoxy)phenyl)propanoic acid] | 110 | 101 to 102 | 
O=S1(=O)c2ccccc2CN1c1cc(F)cc(Oc2ccccn2)c1 [Compound 6] |  |  | hGPR40 activity (hGPR40 [1]; at 100 uM, Figure 1, literature value): inactive; EC50 (hGPR120): 123 nM
Cc1ccc(-c2ccc(F)cc2COc2ccc(CCC(=O)O)c(C)c2)cc1 [Compound 3f, 3-(4-((4-Fluoro-4′-methyl-[1,1′-biphenyl]-2-yl)methoxy)-2-methylphenyl)propanoic acid] | 90.2 | 116 to 117 | 
Cc1ccc(-c2ccc(F)cc2COc2ccc(C(C)CC(=O)O)cc2)cc1 (stereo not drawn) [Compound 2f, 3-(4-((4-Fluoro-4′-methyl-[1,1′-biphenyl]-2-yl)methoxy)phenyl)butanoic acid] | 52.8 | 100 to 101 | Selectivity (hGPR40 [2]): 1373; EC50 (hGPR40 [2]): 72.5 µM
Cc1ccc2c(c1)CCCN2C(=O)COc1ccc(C(C)CC(=O)O)cc1 (stereo not drawn) [Compound 11b, 3-(4-(2-(6-Methyl-3,4-dihydroquinolin-1(2H)-yl)-2-oxoethoxy)phenyl)butanoic acid] | 71.2 | 115 to 116 | anti-hyperglycemic effects compared with TUG-891 (normal ICR mice; 30 mg/kg, at 30 min after the oral glucose challenge): better than TUG-891; hypoglycemia (normal ICR mice; dose of 100 mg/kg by gavage): no hypoglycemia was observed; blood glucose during oGTT (normal ICR mice; gavage 20 mg/kg 30 min before oral glucose 3.0 g/kg): significantly reduced blood glucose; blood glucose levels during oGTT (normal ICR mice; gavage 10, 20, 30 and 100 mg/kg 30 min before oral glucose 3.0 g/kg): lowered the blood glucose levels in a dose-dependent manner; Selectivity (hGPR40 [2]): 1159; EC50 (hGPR40 [2]): 82.5 µM; Tmax [3]: 30 min; AUC [3]: 9050 ± 435 ng·h/mL; Cmax [3]: 2530 ± 115 ng/mL; half-life [3]: 107 ± 25.2 min; anti-diabetic effects (blood glucose during oGTT) (DIO mice): equivalent to TUG-891; insulin levels at 30 min after oral administration of glucose (DIO mice): significantly increased insulin levels
CC(CC(=O)O)c1ccc(OCC(=O)N2CCCc3cc(F)ccc32)cc1 (stereo not drawn) [Compound 11d, 3-(4-(2-(6-Fluoro-3,4-dihydroquinolin-1(2H)-yl)-2-oxoethoxy)phenyl)butanoic acid] | 187 | 124 to 130 | 
Cc1cc(OCC(=O)N2CCCc3cc(F)ccc32)ccc1OCC(=O)O [Compound 11f, 2-(4-(2-(6-Fluoro-3,4-dihydroquinolin-1(2H)-yl)-2-oxoethoxy)-2-methylphenoxy)acetic acid] | 204 | 152 to 153 | 
Cc1ccc(-c2ccc(F)cc2COc2ccc(CC(C)C(=O)O)cc2)cc1 (stereo not drawn) [Compound 1f, 3-(4-((4-Fluoro-4′-methyl-[1,1′-biphenyl]-2-yl)methoxy)phenyl)-2-methylpropanoic acid] | 146 | 103 to 104 | 
Cc1ccc(-c2ccc(F)cc2COc2ccc(OCC(=O)O)c(F)c2)cc1 [Compound 7f, 2-(2-Fluoro-4-((4-fluoro-4′-methyl-[1,1′-biphenyl]-2-yl)methoxy)phenoxy)acetic acid] | 106 | 109 to 110 | 
CO[C@H]1C[C@H](Oc2cc(F)c(F)c(-c3c(F)cc(OCCCC(=O)O)cc3F)c2)C1 [Compound 5] |  |  | EC50 (hGPR40 [1]; Figure 1, literature values): > 100 µM; EC50 (hGPR120): 93 nM
COc1ccc2c(c1)CCCN2C(=O)COc1ccc(C(C)CC(=O)O)cc1 (stereo not drawn) [Compound 11c, 3-(4-(2-(6-Methoxy-3,4-dihydroquinolin-1(2H)-yl)-2-oxoethoxy)phenyl)butanoic acid] | 99.6 | 141 to 142 | 
Cc1cc(OCC(=O)N2CCCc3ccccc32)ccc1OCC(=O)O [Compound 11e, 2-(4-(2-(3,4-Dihydroquinolin-1(2H)-yl)-2-oxoethoxy)-2-methylphenoxy)acetic acid] | 255 | 138 to 139 | 
Cc1ccc(-c2ccc(F)cc2COc2ccc(OCC(=O)O)cc2)cc1 [Compound 5f, 2-(4-((4-Fluoro-4′-methyl-[1,1′-biphenyl]-2-yl)methoxy)phenoxy)acetic acid] | 103 | 119 to 120 | 
Cc1ccc2c(c1)CCCN2C(=O)COc1ccc(OCC(=O)O)c(C)c1 [Compound 11g, 2-(2-Methyl-4-(2-(6-methyl-3,4-dihydroquinolin-1(2H)-yl)-2-oxoethoxy)phenoxy)acetic acid] | 83.4 | 147 to 148 | Selectivity (hGPR40 [2]): 1036; EC50 (hGPR40 [2]): 86.4 µM; Tmax [3]: 30 min; AUC [3]: 6710 ± 467 ng·h/mL; Cmax [3]: 1850 ± 102 ng/mL; half-life [3]: 91.2 ± 22.2 min
COc1ccc2c(c1)CCCN2C(=O)COc1ccc(OCC(=O)O)c(C)c1 [Compound 11h, 2-(4-(2-(6-Methoxy-3,4-dihydroquinolin-1(2H)-yl)-2-oxoethoxy)-2-methylphenoxy)acetic acid] | 146 | 141 to 142 | 
Cc1ccc(-c2ccc(F)cc2COc2ccc(OCC(=O)O)c(C)c2)cc1 [Compound 6f, 2-(4-((4-Fluoro-4′-methyl-[1,1′-biphenyl]-2-yl)methoxy)-2-methylphenoxy)acetic acid] | 72.7 | 115 to 116 | Selectivity (hGPR40 [2]): 810; EC50 (hGPR40 [2]): 58.9 µM
CC(CC(=O)O)c1ccc(OCC(=O)N2CCCc3ccccc32)cc1 (stereo not drawn) [Compound 11a, 3-(4-(2-(3,4-Dihydroquinolin-1(2H)-yl)-2-oxoethoxy)phenyl)butanoic acid] | 113 | 117 to 118 | 
Cc1ccc(-n2nc(C)c3cnc(-c4ccc([C@H]5C[C@@H]5C(=O)O)cc4)cc32)nc1 [Compound 4] |  |  | EC50 (hGPR40 [1]; Figure 1, literature values): > 100 µM; EC50 (hGPR120): 740 nM
O=C(O)CCc1cc(F)c(OCc2c(-c3ccc(Cl)cc3F)nsc2C(F)(F)F)c(F)c1 [Compound 3] |  |  | EC50 (hGPR40 [1]; Figure 1, literature value): > 5 µM; EC50 (hGPR120): 42 nM

Source: PMC8624523, “Novel GPR120 Agonists with Improved Pharmacokinetic Profiles for the Treatment of Type 2 Diabetes” (Molecules, 2021)
